Test results taken from US20200024278A1, “COMPOSITION COMPRISING ANTIBIOTIC COMPOUND AND AN HETEROCYCLIC COMPOUND AND THEIR USE IN PREVENTING OR TREATING BACTERIAL INFECTIONS” (MUTABILIS, priority 2016, published 2020).
Read-outs that look alike come from different tables or passages of the source.

What was measured:
Experiment in all cases: MIC, broth microdilution (CLSI), substance alone or ATB combined with compound at 4 or 8 μg/mL
ABA UFR152 = assay type: cell-based, A. baumannii
Method: (§1) Compounds of the present invention were assessed against genotyped bacterial strains alone or in combination with an antibacterial. In the assays, MICs of said compounds or combination of antibiotics with fixed concentrations of said compounds (4 or 8 μg/mL) were determined by the broth microdilution method according to the Clinical Laboratory Standards Institute (CLSI-M7-A7). Briefly, compounds alone according to the invention were prepared in DMSO and spotted (2 μL each) on sterile polystyrene plates (Corning, 3788). Combinations of compounds and antibiotics dilutions were prepared in DMSO and spotted (1 μL each) on sterile polystyrene plates (Corning, 3788). Log phase bacterial suspensions were adjusted to a final density of 5·10^5 CFU/mL in cation-adjusted Mueller-Hinton broth (ca-MHB; Becton-Dickinson and Company) and added to each well (98 μL). Assays including Fosfomycin were supplemented with 25 μg/ml of Glucose-6-phosphate. Microplates were incubated for 16-20 h at 35° C. in ambient air. The MIC of the compounds was defined as the lowest concentration of said compounds that prevented bacterial growth as read by visual inspection. The MIC of ATB at each compound concentration was defined as the lowest concentration of ATB that prevented bacterial growth as read by visual inspection.

ABA UFR156 = assay type: cell-based, A. baumannii
Method: as §1

ABA UFR158 = assay type: cell-based, A. baumannii; details: with Example 6 @8 μg/ml
Method: as §1

ABA UFR155 = assay type: cell-based, A. baumannii
Method: as §1

ABA UFR154 = assay type: cell-based, A. baumannii
Method: as §1

ABA UFR151 = assay type: cell-based, A. baumannii
Method: as §1

ABA 19606 = assay type: cell-based, A. baumannii
Method: as §1

ABA UFR157 = assay type: cell-based, A. baumannii
Method: as §1

ABA UFR160 = assay type: cell-based, A. baumannii; details: with Example 6 @8 μg/ml
Method: as §1

ABA UFR153 = assay type: cell-based, A. baumannii
Method: as §1

KPN 6299 = assay type: cell-based, K. pneumoniae; details: Klebsiella pneumoniae
Procedure, shortened: (§2)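 Per CLSI-M7-A7, MICs are determined in cation-adjusted Mueller-Hinton broth with a final inoculum of 5·10^5 CFU/mL. Plates incubate 16-20 h at 35° C in air and are read by eye. Fosfomycin assays carry 25 μg/ml glucose-6-phosphate.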

KPN UFR68 = assay type: cell-based, K. pneumoniae; details: Klebsiella pneumoniae, substance alone
Procedure, shortened: as §2

PAE UFR90 = assay type: cell-based, P. aeruginosa; details: Pseudomonas aeruginosa, PAE UFR90
Procedure, shortened: as §2

PAE 105250 = assay type: cell-based, P. aeruginosa; details: Pseudomonas aeruginosa, PAE 105250
Procedure, shortened: as §2

PAE UFR48 = assay type: cell-based, P. aeruginosa; details: Pseudomonas aeruginosa, PAE UFR48
Procedure, shortened: as §2

ECL P99 = assay type: cell-based, E. cloacae; details: Enterobacter cloacae, ECL P99
Procedure, shortened: as §2

ECO UFR39 = assay type: cell-based, E. coli; details: Escherichia coli, ECO UFR39
Procedure, shortened: as §2

ECO 190317 = assay type: cell-based, E. coli; details: Escherichia coli, ECO 190317
Procedure, shortened: as §2

SAU 29213 = assay type: cell-based, S. aureus; details: Staphylococcus aureus
Procedure, shortened: as §2

SPN 49619 = assay type: cell-based, S. pneumoniae; details: Streptococcus pneumoniae, SPN 49619
Procedure, shortened: as §2

[1] = Acinetobacter baumannii, antibiotic alone, read-out: MIC ATB alone
[2] = antibiotic alone, read-out: MIC ATB alone

C[C@@H](O)[C@H]1C(=O)N2C(C(=O)O)=C(S[C@@H]3CN[C@H](C(=O)N(C)C)C3)[C@H](C)[C@H]12 [MEM, Meropenem]
0.063 µg/mL: MIC (ECL P99; [2]) | MIC (ECL P99; substance alone, read-out: MIC) | MIC (SPN 49619; [2]) | MIC (SPN 49619; substance alone, read-out: MIC)
8 µg/mL: MIC ATB combined with Example 3 @8 μg/ml (ABA UFR156; with Example 3 @8 μg/ml) | MIC ATB combined with Example 10 @8 μg/ml (ABA UFR156; with Example 10 @8 μg/ml) | MIC ATB combined with Example 3 @8 μg/ml (ABA UFR155; with Example 3 @8 μg/ml) | MIC ATB combined with Example 10 @8 μg/ml (ABA UFR155; with Example 10 @8 μg/ml)
16 µg/mL: MIC ATB combined with Example 6 @8 μg/ml (ABA UFR156; with Example 6 @8 μg/ml) | MIC ATB combined with Example 1 @8 μg/ml (ABA UFR155; with Example 1 @8 μg/ml) | MIC ATB combined with Example 6 @8 μg/ml (ABA UFR155; with Example 6 @8 μg/ml) | MIC ATB combined with Example 9 @4 μg/ml (ABA UFR155; with Example 9 @4 μg/ml) | MIC ATB combined with Example 11 @8 μg/ml (ABA UFR155; with Example 11 @8 μg/ml) | MIC ATB combined with Example 12 @8 μg/ml (ABA UFR155; with Example 12 @8 μg/ml)
1 µg/mL: MIC ATB combined with Example 3 @8 μg/ml (ABA UFR152; with Example 3 @8 μg/ml) | MIC ATB combined with Example 9 @4 μg/ml (ABA UFR152; with Example 9 @4 μg/ml) | MIC ATB combined with Example 10 @8 μg/ml (ABA UFR152; with Example 10 @8 μg/ml) | MIC ATB combined with Example 11 @8 μg/ml (ABA UFR152; with Example 11 @8 μg/ml) | MIC ATB combined with Example 12 @8 μg/ml (ABA UFR152; with Example 12 @8 μg/ml) | MIC ATB combined with Example 15 @4 μg/ml (ABA UFR152; with Example 15 @4 μg/ml) | MIC (ABA UFR154; [1]) | MIC ATB combined with Example 11 @8 μg/ml (ABA UFR154; with Example 11 @8 μg/ml) | MIC (ABA 19606; [1]) | MIC ATB combined with Example 1 @8 μg/ml (ABA 19606; with Example 1 @8 μg/ml) | MIC ATB combined with Example 1 @8 μg/ml (ABA UFR157; with Example 1 @8 μg/ml) | MIC ATB combined with Example 9 @4 μg/ml (ABA UFR157; with Example 9 @4 μg/ml) | MIC (ABA UFR153; [1]) | MIC ATB combined with Example 1 @8 μg/ml (ABA UFR153; with Example 1 @8 μg/ml) | MIC ATB combined with Example 11 @8 μg/ml (ABA UFR153; with Example 11 @8 μg/ml) | MIC (KPN 6299; [2]) | MIC (KPN 6299; substance alone, read-out: MIC)
<=0.25 μg/mL: MIC ATB combined with Example 3 @8 μg/ml (ABA UFR154; with Example 3 @8 μg/ml) | MIC ATB combined with Example 10 @8 μg/ml (ABA UFR154; with Example 10 @8 μg/ml) | MIC ATB combined with Example 12 @8 μg/ml (ABA UFR154; with Example 12 @8 μg/ml) | MIC ATB combined with Example 1 @8 μg/ml (ABA UFR151; with Example 1 @8 μg/ml) | MIC ATB combined with Example 3 @8 μg/ml (ABA UFR151; with Example 3 @8 μg/ml) | MIC ATB combined with Example 6 @8 μg/ml (ABA UFR151; with Example 6 @8 μg/ml) | MIC ATB combined with Example 9 @4 μg/ml (ABA UFR151; with Example 9 @4 μg/ml) | MIC ATB combined with Example 10 @8 μg/ml (ABA UFR151; with Example 10 @8 μg/ml) | MIC ATB combined with Example 12 @8 μg/ml (ABA UFR151; with Example 12 @8 μg/ml) | MIC ATB combined with Example 3 @8 μg/ml (ABA 19606; with Example 3 @8 μg/ml) | MIC ATB combined with Example 6 @8 μg/ml (ABA 19606; with Example 6 @8 μg/ml) | MIC ATB combined with Example 10 @8 μg/ml (ABA 19606; with Example 10 @8 μg/ml) | MIC ATB combined with Example 12 @8 μg/ml (ABA 19606; with Example 12 @8 μg/ml) | MIC ATB combined with Example 3 @8 μg/ml (ABA UFR157; with Example 3 @8 μg/ml) | MIC ATB combined with Example 6 @8 μg/ml (ABA UFR157; with Example 6 @8 μg/ml) | MIC ATB combined with Example 12 @8 μg/ml (ABA UFR157; with Example 12 @8 μg/ml) | MIC ATB combined with Example 3 @8 μg/ml (ABA UFR153; with Example 3 @8 μg/ml) | MIC ATB combined with Example 9 @4 μg/ml (ABA UFR153; with Example 9 @4 μg/ml) | MIC ATB combined with Example 10 @8 μg/ml (ABA UFR153; with Example 10 @8 μg/ml) | MIC ATB combined with Example 12 @8 μg/ml (ABA UFR153; with Example 12 @8 μg/ml) | MIC ATB combined with Example 15 @4 μg/ml (ABA UFR153; with Example 15 @4 μg/ml)
0.031 µg/mL: MIC (ECO 190317; [2]) | MIC (ECO 190317; substance alone, read-out: MIC)
32 µg/mL: MIC ATB combined with Example 12 @8 μg/ml (ABA UFR156; with Example 12 @8 μg/ml) | MIC (ABA UFR155; [1]) | MIC (ABA UFR157; [1]) | MIC (KPN UFR68)
0.125 µg/mL: MIC (SAU 29213; MSSA) | MIC (SAU 29213; antibiotic alone, SAU 29213, read-out: MIC ATB alone)
0.5 µg/mL: MIC ATB combined with Example 1 @8 μg/ml (ABA UFR154; with Example 1 @8 μg/ml) | MIC ATB combined with Example 6 @8 μg/ml (ABA UFR154; with Example 6 @8 μg/ml) | MIC ATB combined with Example 9 @4 μg/ml (ABA UFR154; with Example 9 @4 μg/ml) | MIC ATB combined with Example 15 @4 μg/ml (ABA UFR154; with Example 15 @4 μg/ml) | MIC (ABA UFR151; [1]) | MIC ATB combined with Example 11 @8 μg/ml (ABA UFR151; with Example 11 @8 μg/ml) | MIC ATB combined with Example 15 @4 μg/ml (ABA UFR151; with Example 15 @4 μg/ml) | MIC ATB combined with Example 11 @8 μg/ml (ABA 19606; with Example 11 @8 μg/ml) | MIC ATB combined with Example 15 @4 μg/ml (ABA 19606; with Example 15 @4 μg/ml) | MIC ATB combined with Example 10 @8 μg/ml (ABA UFR157; with Example 10 @8 μg/ml) | MIC ATB combined with Example 11 @8 μg/ml (ABA UFR157; with Example 11 @8 μg/ml) | MIC ATB combined with Example 15 @4 μg/ml (ABA UFR157; with Example 15 @4 μg/ml)
4 µg/mL: MIC ATB combined with Example 1 @8 μg/ml (ABA UFR152; with Example 1 @8 μg/ml) | MIC (PAE 105250; [2]) | MIC (PAE 105250; substance alone, read-out: MIC) | MIC (PAE UFR48; [2]) | MIC (PAE UFR48; substance alone, read-out: MIC)
<0.25 µg/mL: MIC ATB combined with Example 6 @8 μg/ml (ABA UFR158) | MIC ATB combined with Example 6 @8 μg/ml (ABA UFR160) | MIC ATB combined with Example 6 @8 μg/ml (ABA UFR153; with Example 6 @8 μg/ml)
2 µg/mL: MIC (ABA UFR152; [1]) | MIC ATB combined with Example 6 @8 μg/ml (ABA UFR152; with Example 6 @8 μg/ml) | MIC ATB combined with Example 9 @4 μg/ml (ABA 19606; with Example 9 @4 μg/ml) | MIC (PAE UFR90; [2]) | MIC (PAE UFR90; substance alone, read-out: MIC)
64 µg/mL: MIC (ABA UFR156; [1]) | MIC ATB combined with Example 1 @8 μg/ml (ABA UFR156; with Example 1 @8 μg/ml) | MIC ATB combined with Example 9 @4 μg/ml (ABA UFR156; with Example 9 @4 μg/ml) | MIC ATB combined with Example 11 @8 μg/ml (ABA UFR156; with Example 11 @8 μg/ml) | MIC ATB combined with Example 15 @4 μg/ml (ABA UFR156; with Example 15 @4 μg/ml) | MIC ATB combined with Example 15 @4 μg/ml (ABA UFR155; with Example 15 @4 μg/ml) | MIC (ECO UFR39; [2]) | MIC (ECO UFR39; substance alone, read-out: MIC)
